Test results: patent US4831043A, “Dopaminergic benzimidazol-2-ones” (Roussel Uclaf, priority 1987, dated 1989)
Counter-ions that a name gives are not always drawn. Like-named read-outs stand apart in the source and are kept apart here.

Experiments:
[1] = test system: average arterial pressure; test: Test of revealing a direct vasodilatation activity (demedulated rats under angiotensine II perfusion); format: in vivo, Rats of Sprague-Dawley strain; settings: Rattus norvegicus, intravenous cumulative doses, tested between 0.001 and 1 mg/kg, read-out: dose from which vasodilatation effect starts
Method: Rats of Sprague-Dawley strain with a weight of 320-350 g were anesthetized with pentobarbital (50 mg/kg by interperitoneal injection). After insertion of a carotid catheter to measure the arterial pressure and a jugular catheter for the injection of the compounds to be stidied as well as the eventual antagonists, the animals were demedulated by a steel rod which was introduced by the right orbital hole and passed down the whole length of the spinal marrow. The animals were then placed immediately under assisted respiration and some minutes after stabilization of arterial pressure, the animals received an intravenous perfusion of angiotensine II of 0.50 micrograms/kg per minute to increase their average pressure by about 100 mm of mercury. After obtaining a plateau, the test compound was injected intravenously every 2 minutes and in cumulative doses. The percentages of fall of the average arterial pressure so obtained enabled a curve of dose-response to be drawn reflecting the vasodilatation activity of the molecule studied. Previous treatment of the animals by different antagonists enabled the mechanism of action of this molecule to be distinguished. The products were tested between 0.001 and 1 mg/kg and domperidone and propanolol were used as antagonists.

[2] = test system: mice; test: Study of the acute toxicity (LDO, oral route); format: in vivo
Method: (3) Study of the acute toxicity
The lethal doses LDO of the different compounds tested were evaluated after administration by oral route in mice. The maximum dose not causing any mortality in 8 days was called LDO and the following results were obtained: […]

[3] = target: T1, dopaminergic receptors (Rattus norvegicus, UniProt P61169); test: Affinity for the dopaminergic receptors (displacement of 3H spiroperidol, striated bodies); format: binding, rats
T1 construct: The striated bodies removed from the brains of 6 male rats; from tissue; host or cells: rat striatum (striated bodies), membrane preparation
T1 sequence (P61169 whole entry): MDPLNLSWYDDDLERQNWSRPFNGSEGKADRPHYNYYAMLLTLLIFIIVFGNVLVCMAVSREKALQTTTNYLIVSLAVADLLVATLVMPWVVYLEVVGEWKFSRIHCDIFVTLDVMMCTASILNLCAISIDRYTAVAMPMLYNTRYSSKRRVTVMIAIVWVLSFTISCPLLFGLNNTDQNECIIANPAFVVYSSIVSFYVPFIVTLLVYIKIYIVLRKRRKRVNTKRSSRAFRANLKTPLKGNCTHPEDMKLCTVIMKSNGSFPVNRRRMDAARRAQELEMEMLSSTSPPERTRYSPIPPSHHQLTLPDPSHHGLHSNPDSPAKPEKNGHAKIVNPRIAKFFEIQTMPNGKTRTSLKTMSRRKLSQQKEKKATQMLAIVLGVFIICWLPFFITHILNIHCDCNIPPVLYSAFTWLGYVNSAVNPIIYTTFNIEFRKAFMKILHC
Method: (4) Affinity for the dopaminergic receptors
The striated bodies removed from the brains of 6 male rats weighing an average of 150 g were homogenized to the twentieth (weight/volume) in 0.32M sucrose. After centrifuging the homogenized mixture at 1,000 g for 10 minutes at 0° C. the supernatant was centrifuged at 30,000 g for 15 minutes at +4° C. The residue was taken up in 25 ml of Tris HCl 50 mM buffer, pH 7.7, and centrifuged at 30,000 g for 15 minutes at +4° C. The new residue was taken up in 50 ml of Krebs Tris HCl buffer pH 7.3, and the suspension was pre-incubated fo 10 minutes at 37° C. It was then incubated for 20 minutes on a water-bath at +37° C. in the presence of 3H spinoperidol alone, with an excess of haloperidol and with increasing concentrations of the product under test. The incubated suspensions were filtered on Whatman GF/C and the filters were washed three times with 5 ml of Tris HCl 50 mM buffer. The radio-activity of the filters was measured by liquid scintillation.
The non-specific fixation were determined in parallel by incubation of 3H spiroperidol in the presence of an excess of haloperidol and the following results were obtained. The result was expressed directly in 50% inhibiting concentrations, (IC50 : concentration of product studied, expressed in nM, necessary to displace 50% of the specific radio-activity fixed on the receptor studied).

[4] = test system: arterial pressure; test: Study of the hypotensive activity on anesthetized "normotendu" rat; format: in vivo, Male Sprague-Dawley rats (CR); settings: jugular vein injection
Method: (5) Study of the hypotensive activity on anesthetized "normotendu" rat.
Male Sprague-Dawley rats (CR) were anesthetized intraperitoneally with sodium pentobarbital (60 mg/Kg). A jugular vein was catheterized for injection of the product and a carotid artery was catheterized for registration of the arterial pressure. The product to be tested was dissolved in 10% of ethanol and then injected at a volume of 1 ml/kg. […] The following table indicates the variations of the arterial pressure after administration of the product tested expressed as a percentage of the initial control arterial pressure.

[5] = test system: nigrostriated dopaminergic bundle; test: Rotational behaviour after unilateral lesion of the nigrostriated bundle by 6-hydroxydopamine; format: in vivo, rats
Method: (1) Rotational behaviour after unilateral lesion of the nigrostriated bundle by 6-hydroxydopamine.
Male rats of about 220 g weight were injured in the nigrostriated dopaminergic bundle by a modified Ungerstedt's method [Acta. physiol. Scand. 1971, 82 suppl. 367-69 93] by unilateral injection of […] of 6-hydroxydopamine hydrochloride in solution in 4 microliters of physiological solution containing 0.4 mg/ml of ascorbic acid. The products studied were administered intraperitoneally and the treated animals were placed individually in a rotameter which enabled the counting of the number of rotations made by each animal in the direction opposite to that of the injured side.

In the case of `Br.O=c1[nH]c2c(O)ccc(C3CCCNC3)c2[nH]1` (stereo not shown) [Example 4, 1,3-dihydro-4-hydroxy-7-(3-piperidinyl)-2H-benzimidazol-2-one hydrobromide], the minimal effective dose [1] is reported as 0.03 mg/kg, the “LDO (maximum dose not causing any mortality in 8 days)” value [2] is reported as “greater than 400 mg/kg” and the IC50 [3] is reported as 300 nM. For the same compound, the “variation of the arterial pressure 30 min. after administration” value ([4]; dose 0.1 mg/kg) was -17 percentage of the initial cont.

With `O=c1[nH]c2cccc(C3CCCNC3)c2[nH]1` (stereo not shown) [Example 1, 1,3-dihydro-4-(3-piperidinyl)-2H-benzimidazol-2-one] the “LDO (maximum dose not causing any mortality in 8 days)” value [2] was “greater than 400 mg/kg” and the IC50 ([3]; rat striated bodies, 3H spiroperidol, 20 minutes at 37° C., pH 7.3, read-out: IC50 (displacement of 50% of the specific radio-activity fixed on the receptor)) was 172 nM.

For `CN1CCCC(c2ccc(O)c3[nH]c(=O)[nH]c23)C1` (stereo not shown) [Example 6, 1,3-dihydro-4-hydroxy-7-(1-methyl-3-piperidinyl)-2H-benzimidazol-3-one hydrobromide], the minimal effective dose ([5]; Rattus norvegicus, ip, read-out: dose from which rotational behavior is induced) was 10 mg/kg, the “rotational behavior (activity)” value ([5]; rats, intraperitoneal, dose of 5 mg/kg) was “inactive” and the “central dopaminergic agonist activity” value ([5]; rats, intraperitoneal, conclusion from rotation model of very great sensitivity) was “weak”.

For `Br.CCCN1CCCC(c2ccc(O)c3[nH]c(=O)[nH]c23)C1` (stereo not shown) [Example 5, 1,3-dihydro-4-hydroxy-7-(1-propyl-3-piperidinyl)-2H-benzimidazol-2-one hydrobromide], the “variation of the arterial pressure 5 min. after administration” value ([4]; dose 1 mg/kg) was -19 percentage of the initial cont, the “variation of the arterial pressure 30 min. after administration” value ([4]; dose 1 mg/kg) was -19 percentage of the initial cont and the “variation of the arterial pressure 5 min. after administration” value ([4]; dose 10 mg/kg) was -23 percentage of the initial cont. The “variation of the arterial pressure 30 min. after administration” value ([4]; dose 10 mg/kg) was -21 percentage of the initial cont.
